Reference: US6369251B1, “Method for purification of polyprenyl compounds” (Nikken Chemicals Co., Ltd., priority 1999, dated 2002)

Assays:
[1] = Determination of peroxide value by the British Pharmacopeia method (iodometric titration); type: physicochemical; details: sample after recrystallization; about 1 g sample, titration with sodium thiosulfate
Procedure: The results of purities and determined peroxide values of (2E, 4E, 6E, 10E)-3,7,11,15-tetramethyl-2,4,6,10,14-hexadecapentaenoic acid obtained in Example 1 and Reference Example 3 are shown in Table 1.
The determination of the peroxide values was performed by the method described in the British Pharmacopeia. About 1 g of each sample was accurately weighed in a stoppered Erlenmeyer flask, and the sample was added with chloroform (15 mL) and dissolved. The solution was added with acetic acid (20 mL), and the mixture was shaken gently. Air in the flask was sufficiently substituted with argon atmosphere, and the mixture was added with 1 mL of saturated potassium iodide solution prepared just before use, and the mixture was left stand for 10 minutes in a dark place. Then, the mixture was added with 30 mL of water and shaken vigorously. The liberated iodine was titrated with […] sodium thiosulfate solution (indicator: 2 mL of the starch test solution). The titration was terminated when the purplish red color of the solution disappeared. Correction was made by performing a blank test in the same manner.
The peroxide value was calculated by using the following equation.
Peroxide value (meq/kg)=10f(a−b)/Sampled weight (g) a: Titration volume (mL) of 0.01 mol/L Na2S2O3 solution b: Titration volume (mL) of 0.01 mol/L Na2S2O3 solution in the blank test f: Factor of 0.01 mol/L Na2S2O3 solution

[2] = system: hepatic carcinoma; details: known from literature; cited from earlier work

Peroxide value [1] [meq/kg]	SMILES	effect on recurrence of hepatic carcinoma [2]
3.0	CC(C)=CCC/C(C)=C/CC/C(C)=C/C=C/C(C)=C/C(=O)O [Reference Example 3, (2E, 4E, 6E, 10E)-3,7,11,15-tetramethyl-2,4,6,10,14-hexadecapentaenoic acid]	
0	CC(C)=CCC/C(C)=C/CC/C(C)=C/C=C/C(C)=C/C(=O)O [Example 1, (2E, 4E, 6E, 10E)-3,7,11,15-tetramethyl-2,4,6,10,14-hexadecapentaenoic acid]	
	CC(C)=CCC/C(C)=C/CC/C(C)=C/C=C/C(C)=C/C(=O)O [(2E, 4E, 6E, 10E)-3,7,11,15-Tetramethyl-2,4,6,10,14-hexadecapentaenoic acid]	suppressing effect on recurrence of hepatic carcinoma
